# Results from PubChem BioAssay AID588540 (NMMLSC, 2011).
# Calls of active or inactive are those of the source.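 Rule for the calls: active = viability below 80%, treated as toxic; inactive = the rest.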
# Test system: HEK-293 viability, CellTiter-Glo, 3 days
# Assay: viability loss in HEK-293 cells – cell-based, powder set 1, set 2, cytotoxicity control for GRK2 aptamer-displacement inhibitor project, late-stage follow-up (AID 588540)
# Details: at 20 µM; active compounds read low
row,SMILES,viability
1,COc1ccc(Cl)cc1NC(=O)CCS(=O)(=O)c1ccc(Br)cc1,106% (inactive)
2,CCOc1ccc(NC(=O)CCS(=O)(=O)c2ccc(Br)cc2)cc1,108% (inactive)
3,CC(CS(=O)(=O)c1ccc2c(c1)NC(=O)CS2)C(=O)NCc1ccccc1Cl (stereo not drawn),119% (inactive)
4,Cc1cc2ccccc2n1CCNC(=O)C(C)Oc1ccccc1 (stereo not drawn),68.6%
5,NS(=O)(=O)c1ccc(CCNC(=O)CCS(=O)(=O)c2ccc(Br)cc2)cc1,124% (inactive)
6,COc1ccc(CCNC(=O)CCS(=O)(=O)c2ccc(Br)cc2)cc1OC,120% (inactive)
7,Cc1ccc(CCNC(=O)CCS(=O)(=O)c2ccc(Br)cc2)cc1,126% (inactive)
8,O=C(CN1CCc2ccccc21)NC(=O)NCc1ccccc1,56.1%
9,Cc1ccccc1NC(=O)CCS(=O)(=O)c1ccc(Br)s1,94.2% (inactive)
10,COC(=O)c1ccccc1NC(=O)CCS(=O)(=O)c1ccc(Br)s1,81.6% (inactive)
11,C#CCSc1nc2sc3c(c2c(=O)n1C)CCC3,92.8% (inactive)
12,CC(=O)N1CCN(Cc2nc3cc(Cl)ccc3c(=O)[nH]2)CC1,124% (inactive)
13,O=C(CSc1nc2ccccc2c(=O)n1-c1ccccc1)NC(=O)CN1CCCC1=O,116% (inactive)
14,O=C(CCS(=O)(=O)c1ccc(Br)cc1)Nc1ccc(Br)cc1F,116% (inactive)
15,COc1ccc([N+](=O)[O-])cc1NC(=O)CCS(=O)(=O)c1ccc(Br)cc1,118% (inactive)
16,COc1ccc(NC(=O)CCS(=O)(=O)c2ccc(Br)s2)cc1,86.8% (inactive)
17,O=C(CCS(=O)(=O)c1ccc(Br)cc1)NCc1cccs1,131% (inactive)
18,O=C(O)Cc1ccc(-n2cccc2)cc1,125% (inactive)
19,CCN(CC)c1ccc(NC(=O)CCS(=O)(=O)c2ccc(Br)cc2)c(C)c1,97.3% (inactive)
20,COC(=O)c1ccc(NC(=O)CCS(=O)(=O)c2ccc(Br)cc2)cc1,126% (inactive)
21,CCOc1ccccc1NC(=O)CCS(=O)(=O)c1ccc(Br)cc1,79.5% (inactive)
22,O=C(CCS(=O)(=O)c1ccc(Br)s1)Nc1ccccc1Br,71.3%
23,Cc1cccc(CCNC(=O)CCS(=O)(=O)c2ccc(Br)cc2)c1,129% (inactive)
